Data from US5252558A, “Pentapeptide having specific inhibiting effect on epidermal cell proliferation, the salts thereof, pharmaceutical compositions comprising the same and a process for the preparation of the pentapeptide and the pharmaceutical compositions” (Richter Gedeon Vegyeszeti Gyar RT, priority 1990, dated 1993).
Residues, ends and D or L forms follow the SMILES beside them. *: point of attachment. X1 = O=C1CCC[C@@H](C(=O)*)N1

System: cytoblastic medulla cells
Experiment: 51Cr-emission test (in vitro toxicity)
Assay type: cell-based, rat
Method: The in vitro toxicity of the new compound was examined by ^51 Cr emission test.
6×10^7 cytoblastic medulla cells to be labelled were centrifuged (1000 rotations/minute for 7 minutes), then the cells were suspended in 1 ml of TC-199 Parker medium (product of OKI) and incubated with ^51 Cr ray source of an activity of 3.7×10^7 Bq (1 mCi) at a temperature of 37° C. for 1 hour, then the labelled cells were washed with 60 ml of medium. When the evaluation was carried out, the cell suspension was centrifuged after the treatment with the oligopeptide and the radioactivity of the supernatant was measured.
When the ^51 Cr emission test was evaluated, the cell suspension was treated with the oligopeptide and centrifuged, then the activity of the supernatant was determined by a Packard apparatus.

Q: How did the “51Cr-emission of cytoblastic medulla cells, cpm” value (concentration = 10^-8 mole/l, control 155,849) turn out when `O=C(O)CC[C@H](NC(=O)[C@@H]1CCCC(=O)N1)C(=O)N[C@@H](CC(=O)O)C(=O)N[C@@H](CO)C(=O)NCC(=O)O` [pAad-EI, Xaa Glu Asp Ser Gly] (X1-EDSG-OH) was run?
A: 148,303 cpm

Q: What about the “toxicity by 51Cr emission (in words)” value (isotope emission compared to the control) of the same compound?
A: not toxic
